The results in this text go back to patent US20080070855A1, “Treatment with anti-VEGF agents to prevent postoperative inflammation and angiogenesis in normal and diseased eyes” (priority 2006, published 2008).

The experiment relates to patients with diabetic retinopathy undergoing cataract surgery. The experiment in a line: Intravitreal injection of anti-VEGF compound before cataract surgery in patients with diabetic retinopathy (case reports). The settings on record: Example 2: diabetic retinopathy; 0.15 cc (3.75 mg) intravitreal, same day prior to cataract surgery. In kind it is in vivo, human. How it is done:
The following is an example of a method performed for the intravitreal injection of pharmaceutical compositions containing at least one anti-VEGF compound. Prior to injecting a needle through the sclera, the eyes were massaged to soften the ophthalmic tissue. The next step is to create a bleb in the conjunctiva and move the conjunctiva up from prefere so it covered an area about 3.5 mm from the limbus. Once the conjunctiva is prepared, the needle is inserted through the sclera into the vitreous. A 30 or 31 gauge needle is used. […]
A person underwent cataract surgery in the right eye. […] Refraction of the right eye was measured as −0.25−0.75×170 20/200. […] Refraction of the right eye after one week was measured at −0.25 sph 20/25.
A person with proliferative diabetic retinopathy with a history of pan-photocoagulation underwent cataract surgery of both eyes, however on different dates. Preoperative right eye refraction was measured as pl −0.50×174 20/100. Preoperative left eye refraction was measured as −0.75 sph 20/150. […]
A person with proliferative diabetic retinopathy with a history of pan-photocoagulation underwent cataract surgery of the left eye. Preoperative left eye refraction was measured as plano sph 20/80. […] Six days following cataract surgery refraction of the left eye was measured as plano sph 20/25.

For “Bevacizumab: anti-VEGF humanized monoclonal IgG1 antibody that binds and inhibits VEGF (trade name AVASTIN, Genentech)”, the “Patient condition after one week” value is listed as “doing well”.
